Source: EPA's ToxValDB 9.5 (doi:10.2903/j.efsa.2006.54)

What was measured:
Aphidius rhopalosiphi = test: LR50; higher = less toxic; conditions: not reported; mortality
Daphnia magna = conditions: chronic/long-term; duration: 21 days; reproduction
Apis mellifera = conditions: acute, mortality
Canidae = conditions: chronic; duration: 2 years; oral; Dog Other; clinical chemistry
Typhlodromus pyri = conditions: not reported; reproduction
Anatidae = conditions: short-term; oral; feed; mortality

For `CCOP(=O)=O.CCOP(=O)=O.CCOP(=O)=O.[Al+3]` [Fosetyl aluminum], the LR50 (Aphidius rhopalosiphi) was > 64000 g/ha, the LD50 (acute, mortality) was > 7080 mg/kg and the NOEC (reproductive, oral, feed) was 439 mg/kg-day. For the same molecule, the NOEC (Daphnia magna) was 17 mg/L, the NOAEL (Rattus norvegicus; chronic, duration: 2 years, oral, clinical chemistry) was 300 mg/kg-day and the NOAEL (Rattus norvegicus; subchronic, duration: 90 days, histopathology: nonneoplastic) was 500 mg/kg-day. The LD50 (Apis mellifera; dermal) was > 1000 µg/piece, the LD50 (Apis mellifera; duration: 48 hours, oral, unspecified) was 462 µg/piece and the NOAEL (Canidae) was 300 mg/kg-day. For the same molecule, the LC50 (Tagia sp.; acute, mortality) was > 1000 mg/kg, the NOEC (Tagia sp.; chronic/long-term, reproduction) was 1670 mg/kg and the LC50 (Oncorhynchus mykiss; acute, duration: 96 hours, mortality) was > 60 µg/mL. For the same molecule, the NOEC (Oncorhynchus mykiss; chronic/long-term, duration: 28 days, growth) was 100 mg/L, the LEL (Typhlodromus pyri) was 15000 g/ha and the LC50 (Anatidae) was > 3540 mg/kg-day. The LD50 (Coturnix coturnix; acute, oral, mortality) was 5000 mg/kg and the NOEC (Coturnix coturnix; reproduction developmental) was 216 mg/kg-day.
